Data reported in US10028992B2, “Methods of treating muscular dystrophy” (BOARD OF REGENTS OF THE NEVADA SYSTEM OF HIGHER EDUCATION …, priority 2012, dated 2018).
Where two headings read alike, the source gives them in different places.

System: α7 integrin promoter
Assay: muscle cell-based assay: α7βgal+/− myoblasts/myotubes, LacZ reporter, β-galactosidase cleavage of FDG
Design: species or system mouse
Summary of the method: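 Fluorescein generated from FDG by β-galactosidase reports α7 integrin promoter activity in differentiated myoblasts from α7+/− LacZ knock-in pups. Screening hits then went to dose-response, western blotting and a myostatin counterscreen.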

SMILES	Results in a α7+/− β-galactosidase assay, Myotubes, 0.5 uM (Myotubes, compound at 0.5 uM)	Results in a α7+/− β-galactosidase assay, Myotubes, 1 uM (Myotubes, compound at 1 uM)	Results in a α7+/− β-galactosidase assay, Myotubes, 5 uM (Myotubes, compound at 5 uM)	Results in a α7+/− β-galactosidase assay, Myotubes, 10 uM (Myotubes, compound at 10 uM)	Results in a α7+/− β-galactosidase assay, Myotubes, 20 uM (Myotubes, compound at 20 uM)	Results in a α7+/− β-galactosidase assay, Myotubes, 40 uM (Myotubes, compound at 40 uM)	Results in a α7+/− β-galactosidase assay, Myotubes, 0.5 uM	Results in a α7+/− β-galactosidase assay, Myotubes, 1 uM	Results in a α7+/− β-galactosidase assay, Myotubes, 5 uM	Results in a α7+/− β-galactosidase assay, Myotubes, 10 uM	Results in a α7+/− β-galactosidase assay, Myotubes, 20 uM	Results in a α7+/− β-galactosidase assay, Myotubes, 40 uM
Cc1cccc(Sc2nc(-c3ccccc3)ccc2C#N)c1 [drawing 390]	−0.06701	−0.1813	0.02472	0.2322	−0.3206	−0.2803	–	–	–	–	–	–
CCC(C)NC(=O)CSc1nnc(COc2ccc(Br)cc2)o1 (stereo not drawn) [drawing 391]	−0.04347	−0.169	−0.2461	−0.2857	−0.2196	−0.2848	–	–	–	–	–	–
Cc1ccc(N2C(=O)C3NN=C(C(=O)OCc4ccccc4)C3C2=O)cc1 (stereo not drawn) [drawing 392]	−0.03749	−0.0238	−0.168	−0.2332	0.00778	−0.01262	–	–	–	–	–	–
Cc1cc([N+](=O)[O-])ccc1NC(=O)C(C)N1CCN(c2ccccn2)CC1 (stereo not drawn) [drawing 393]	0.0774	0.107	−0.1042	−0.1154	−0.297	−0.3729	–	–	–	–	–	–
CCc1nc(/C=C2\C(=O)Nc3ccccc32)c[nH]1 [drawing 394]	0.2902	0.2582	−0.08702	−0.09062	−0.0001	−0.1577	–	–	–	–	–	–
O=C(Cn1nc(-c2ccc(Cl)cc2)ccc1=O)N1CCC2(CC1)OCCO2 [drawing 395]	–	–	–	–	–	–	0.1803	0.1627	−0.1502	−0.1782	−0.08792	−0.2213
CCOC(=O)C1(Cc2cccc(Cl)c2)CCCN(C(=O)CCSC)C1 (stereo not drawn) [drawing 396]	−0.05788	0.02732	−0.3174	−0.211	−0.1814	−0.4242	–	–	–	–	–	–
Cc1cccc2c(/N=N/c3ccc(S(=O)(=O)Nc4ccc(Cl)cc4)cc3[N+](=O)[O-])c(O)[nH]c12 [drawing 397]	−0.03979	−0.05535	−0.02922	0.02994	−0.2047	−0.2727	–	–	–	–	–	–
CC(C)c1ccc(OC(=O)c2cccc(S(=O)(=O)N3CCN(C)CC3)c2)cc1 [drawing 398]	−0.02436	0.01638	−0.2473	0.3054	−0.1863	−0.2246	–	–	–	–	–	–
CC(C)c1ccc(NC(=O)CN2C(=O)c3ccccc3S2(=O)=O)cc1 [drawing 399]	−0.1815	−0.0433	0.02954	−0.2491	−0.1353	−0.1392	–	–	–	–	–	–
NC(=O)c1sc2nc3c(cc2c1N)CCC3 [drawing 400]	−0.1099	−0.1307	−0.1528	0.5381	0.07998	0.08496	–	–	–	–	–	–
O=C(Nc1ccccc1OC(=O)c1ccc(Cl)cc1)c1ccc(Cl)cc1 [drawing 401]	−0.03464	0.02857	−0.09525	−0.1056	−0.1495	−0.3841	–	–	–	–	–	–
CC(NC(=O)c1ccc(C(C)(C)C)cc1)C(c1cccs1)N1CCOCC1 (stereo not drawn) [drawing 402]	0.08612	0.07635	0.06551	0.1287	−0.144	−0.1386	–	–	–	–	–	–
